Counter-ions that a name gives are not always drawn. Like-named read-outs stand apart in the source and are kept apart here.
What was measured:
[1] = molecular target: T1, nicotinic acetylcholine receptor (Rattus norvegicus, UniProt P09483+P12390); test: ^3 H-Nicotine binding/displacement, rat cerebral membranes
T1 construct: the brains removed and the cerebral cortex dissected on ice; from tissue; host or cells: cerebral cortex synaptic membranes of male Sprague-Dawley rats
Protocol: ^3 H-Nicotine binding to rat cerebral membranes was performed according to modifications of the method of Flyn and Mash (J. Neurochem. 47:1948 (1986)). ^3 H-Nicotine (80 ci/mmol; New England Nuclear Corporation, Boston, Mass.) was used as the ligand for nicotinic acetylcholine receptor binding assays. All other reagents were purchased from the Sigma Chemical Co. (St. Louis, Mo.).
Male Sprague-Dawley rats (250-400 gm) were sacrificed by decapitation, the brains removed and the cerebral cortex dissected on ice. Synaptic membranes were prepared by homogenizing the cortical tissue in 20 volumes of ice-cold modified Tris buffer (50 mM Tris pH 7.4, 120 mM NaCl, 5 mM KCl, 2 mM EDTA, 1 mM PMSF) with a polytron (20 sec at setting 5-6) followed by centrifugation (15 min at 5,000×g) at 4° C. The resultant pellet was rehomogenized and centrifuged twice. The final pellet was resuspended in ice-cold assay buffer (50 mM Tris pH 7.4, 120 mM NaCl, 5 mM KCl, 2 mM CaCl2, 1 mM MgCl2) at a concentration of membrane equivalent to 1 gm wet weight cortex per 10 ml buffer. After protein determination the final membrane preparation was diluted with buffer to 3 mg protein/mi. This membrane preparation was used in either the fresh state or frozen (-70° C.) then thawed.
The binding assay is performed manually using 96-well plates, or using a Biomek automated work station (Beckman Instrument Co.). ^3 H-Nicotine was diluted in assay buffer to give a final concentration of 1.9 nM. The Biomek automated work station was programmed to automatically transfer 750 μl of assay buffer with ^3 H-nicotine, 230 μl of membrane preparation and 20 μl of solution containing the compound of interest in assay buffer, DMSO, ethanol:DMSO (1:1) or appropriate vehicle to the 96-well plate. Atropine was added to the incubation buffer at a final concentration of 3 μM to block binding to muscarinic acetylcholine receptor sites. The plates were maintained on ice for 60 min and the tissue-bound radioactivity was separated from the free by rapid filtration in a Brandel Harvester onto GF/C filters presoaked in 0.5% polyethyleneimine for at least 2 hr. The filters were washed with 4×2 ml of ice-cold assay buffer and filters were transferred to vials to which 4 ml of scintillation cocktail was added. The radioactivity was measured in a LS-6500 Beckman Liquid Scintillation Counter in an autodpm mode. Data were analyzed bylog-logit transformation or non-linear regression analysis (e.g., employing GraphPad Prism, available from GraphPad Software, San Diego, Calif.) to give IC50 values. Non-specific binding was defined by 10 μM cytisine.

[2] = molecular target: muscarinic acetylcholine receptors; test: ^3 H-QNB (quinuclidinyl benzilate) binding/displacement, rat cerebral membranes
[3] = test system: ^3 H-Dopamine release, rat striatal slices; test: Ligand-stimulated ^3 H-dopamine release from rat striatal slices; type: cell-based; conditions: for Emax at 300 µM: Rattus norvegicus, read-out: % of Nicotine Response, ^3 H-Dopamine, Striatum
Protocol: (§1) Measurement of ^3 H-dopamine release from rat striatal slices was performed according to the method of Sacaan et al. (J. Neurochem. 59:245 (1992)). Male Sprague-Dawley rats (250-300 g) were decapitated and the striata or olfactory tubercles dissected quickly on a cold glass surface. The tissue was chopped to a thickness of 300 μm with a McIlwain tissue chopper. After chopping again at right angles the tissue was dispersed and incubated for 10 min. at 37° C. in oxygenated Kreb's buffer. ^3 H-Dopamine (40 Ci/mmol, NEN- Dupont, Boston, Mass.) was added (50 nM) and the tissue was incubated for 30 min. in Kreb's buffer containing 10 μM pargyline and 0.5 mM ascorbic acid. Aliquots of the minced tissue were then transferred to chambers of a Brandel Superfusion system in which the tissue was supported on Whatman GF/B filter discs. The tissue was then superfused with buffer at a constant flow rate of 0.3 ml/min by means of a Brandel peristaltic pump. The perfusate was collected in plastic scintillation vials in 3-min fractions, and the radioactivity was estimated by scintillation spectrophotometry. The superfusate for the first 120 min was discarded. After two baseline fractions had been collected, the superfusion buffer was switched to fresh buffer with or without compound of interest. At the end of the experiment the filter and the tissue were removed, and the radiolabeled neurotransmitter content was estimated after extraction into scintillation fluid. The fractional efflux of radiolabeled neurotransmitter was estimated as the amount of radioactivity in the perfusate fraction relative to the total amount in the tissue.
(§2) Results of studies of the effects of an invention compound (as compared to the effect of nicotine) on the release of neurotransmitters from rat brain slices are presented in Table II. Results presented in Part A of the Table are expressed as the percent fractional release and results presented in Part B of the Table are expressed as a percentage, relative to nicotine response.

[4] = test system: ^3 H-Norepinephrine release, rat hippocampus slices; test: Ligand-stimulated ^3 H-norepinephrine release from rat hippocampus slices; type: cell-based; conditions: for Emax at 300 µM: Rattus norvegicus, nicotine 300 μM = 100, read-out: % of Nicotine Response, ^3 H-Norepinephrine, Hippocampus; for % of Nicotine Response, ^3 H-Norepinephrine, Hippocampus: nicotine 300 μM = 100
Protocol: as §1
(§3) Following essentially the same procedure as set forth above, the amount of ^3 H-norepinephrine released from rat hippocampus, thalamus and prefrontal cortex slices superfused with buffer containing (or lacking) compounds of interest was also measured.
as §2

[5] = test system: ^3 H-Norepinephrine release, rat thalamus slices; test: Ligand-stimulated ^3 H-norepinephrine release from rat thalamus slices; type: cell-based; conditions: in vitro slices, 300 μM
Protocol: as §1, §3, §2

[6] = test system: ^3 H-Dopamine release, rat olfactory tubercles; test: Ligand-stimulated ^3 H-dopamine release from rat olfactory tubercles; type: cell-based; conditions: in vitro slices, 300 μM
Protocol: as §1, §2

rats = test: Locomotor activity assay; type: in vivo, rat (male Sprague-Dawley); conditions: Rattus norvegicus, sc, 20 mg/kg, s.c.
Protocol: This assay can be used to assess the primary effect of a compound on general motor activity. A decrease in locomotor activity is indicative of a possible sedative effect on the animal, whereas an increase in locomotor activity is indicative of a stimulant effect on the animal.
Locomotor activity of rats (male Sprague-Dawley (Harlan) weighing 200-250 gm) was measured for 2 hrs in photocell cages immediately after administration of the invention compound. Prior to the test day, the animals were placed in the activity cages for 3 hrs to familiarize them with the experimental environment. On the test day, the animals were placed in the photocell cages and then injected with compound 1.5 hrs later.
The photocell cages were standard rodent cages (30 cm×20 cm×40 cm) with four infrared beams crossing the long axis. The animals were under no motivational constraints and were free to move around. Movements from one infrared beam to another (ambulation) were called "crossover"; successive interruptions of the same beam (vertical and other movements such as grooming) were called "general activity."

[7] = ^3 H-nicotine 1.9 nM, rat cerebral membranes, read-out: IC50, Nicotine
[8] = ^3 H-QNB 60 pM, rat cerebral membranes
[9] = compounds at 300 μM, nicotine 10 μM = 100

T1 sequence (P09483 31-630): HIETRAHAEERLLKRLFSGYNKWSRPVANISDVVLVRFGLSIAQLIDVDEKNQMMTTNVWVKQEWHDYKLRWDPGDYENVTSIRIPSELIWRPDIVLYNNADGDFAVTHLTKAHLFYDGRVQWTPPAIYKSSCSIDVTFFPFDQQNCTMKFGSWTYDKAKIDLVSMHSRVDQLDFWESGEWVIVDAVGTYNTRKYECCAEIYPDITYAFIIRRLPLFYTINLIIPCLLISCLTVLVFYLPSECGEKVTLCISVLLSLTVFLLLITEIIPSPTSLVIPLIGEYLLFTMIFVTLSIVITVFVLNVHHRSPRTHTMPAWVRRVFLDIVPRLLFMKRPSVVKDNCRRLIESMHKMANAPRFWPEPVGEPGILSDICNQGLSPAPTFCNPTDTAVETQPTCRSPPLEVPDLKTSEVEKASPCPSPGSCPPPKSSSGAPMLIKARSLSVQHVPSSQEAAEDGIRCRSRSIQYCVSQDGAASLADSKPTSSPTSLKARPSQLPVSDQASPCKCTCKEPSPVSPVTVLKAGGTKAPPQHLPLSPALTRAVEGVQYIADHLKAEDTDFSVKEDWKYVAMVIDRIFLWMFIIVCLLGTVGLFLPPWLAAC
T1 sequence (P12390 25-500): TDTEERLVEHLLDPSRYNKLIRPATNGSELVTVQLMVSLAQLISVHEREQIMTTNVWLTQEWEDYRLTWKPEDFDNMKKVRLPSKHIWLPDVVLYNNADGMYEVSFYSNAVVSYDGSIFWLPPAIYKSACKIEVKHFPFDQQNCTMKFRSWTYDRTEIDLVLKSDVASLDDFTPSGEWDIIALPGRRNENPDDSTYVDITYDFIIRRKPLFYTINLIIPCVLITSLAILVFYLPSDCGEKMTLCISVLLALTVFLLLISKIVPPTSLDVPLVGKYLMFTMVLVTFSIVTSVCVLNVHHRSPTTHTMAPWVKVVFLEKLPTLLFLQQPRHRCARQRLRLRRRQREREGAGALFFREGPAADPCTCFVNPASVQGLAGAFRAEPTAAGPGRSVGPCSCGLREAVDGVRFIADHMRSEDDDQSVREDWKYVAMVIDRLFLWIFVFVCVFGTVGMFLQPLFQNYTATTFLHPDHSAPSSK

In the case of `CN1CCCC1c1cncc(C#CC(C)(C)O)c1` (stereo not shown), the IC50 [1, 7] is reported as 38 nM, the IC50 [2, 8] is reported as over 100 µM and the Emax at 300 µM [3, 9] is reported as 118%. The Emax at 300 µM [4] was 18.3%.
`C#Cc1cncc(C2CCCN2C)c1` (single isomer, unassigned) [5-Ethynyl-3-(1-methyl-2-pyrrolidinyl)pyridine di-p-toluoyl-L-tartrate] was tested, and the IC50 ([1]; IC50, Nicotine) was 2.6 nM and the Emax at 300 µM ([3]; compound at 300 μM, Nicotine concentration was 300 μM) was 155%.
`C#Cc1cncc(C2CCCN2C)c1` (single isomer, unassigned) [5-ethynyl-3-(1-methyl-2-pyrrolidinyl)pyridine di-p-toluoyl-D-tartrate] showed an IC50 ([1]; IC50, Nicotine) of 78 nM and an Emax at 300 µM [3, 9] of 33%.
With `C#Cc1cncc(C2CCCN2C)c1` (single isomer, unassigned) [R^5 = 5-(1-ethynyl) Di-p-toluoyl-D-tartrate] [5-ethynyl-3-(1-methyl-2-pyrrolidinyl)pyridine di-p-toluoyl-D-tartrate] the IC50 [2, 8] was 4.7 µM and the “% of Nicotine Response, ^3 H-Norepinephrine, Hippocampus” value ([4]; 300 μM) was 3.7%.
With `C#Cc1cncc(C2CCCN2C)c1` (single isomer, unassigned) [R^5 = 5-(1-ethynyl) Di-p-toluoyl-L-tartrate] [5-Ethynyl-3-(1-methyl-2-pyrrolidinyl)pyridine di-p-toluoyl-L-tartrate] the “% of Nicotine Response, ^3 H-Norepinephrine, Hippocampus” value ([4]; 300 μM) was 17.4%.
Work on `Fc1ccc(-c2cncc(C3CCCCN3)c2)cc1` (stereo not shown) [5-(4-Fluorophenyl)-3-(2-piperidinyl)pyridine fumarate] yielded an IC50 [1, 7] of 490 nM and an IC50 [2, 8] of 24.9 µM.
With `C#Cc1cncc(C2CCC(=O)N2C)c1` (stereo not shown) [A = C(O); R^7 = CH3; R^5 = 5-(1-ethynyl), 5-Ethynyl-3-(1-methyl-5-pyrrolidin-2-onyl)pyridine] the IC50 [1, 7] was over 100000 nM and the IC50 [2, 8] was over 100 µM.
For `Cc1ccc(-c2cncc(C3CCCN3C)c2)cc1.O=C(O)/C=C/C(=O)O` (stereo not shown) [R^5 = 4-methylphenyl, 5-(4-Methylphenyl)-3-(1-methyl-2-pyrrolidinyl)pyridine fumarate], the IC50 [1, 7] was 31 nM, the IC50 [2, 8] was 14 µM and the “percent fractional release, ^3 H-Dopamine, Striatum” value ([3]; in vitro slices, 300 μM) was 0.74%. For the same molecule, the “percent fractional release, ^3 H-Norepinephrine, Hippocampus” value ([4]; in vitro slices, 300 μM) was 0.52%, the “percent fractional release, ^3 H-Norepinephrine, Thalamus” value [5] was 0.31% and the “percent fractional release, ^3 H-Dopamine, Olfactory Tubercles” value [6] was 1.0%.
In the case of `CN(C)CC#Cc1cncc(C2CCCN2C)c1` (stereo not shown) [R^5 = 5-(1-dimethylamino-2-propynyl), 5-[3-(1-Dimethylamino-2-propynyl)]-3-(1-methyl-2-pyrrolidinyl)pyridine fumarate], the IC50 [1, 7] is reported as 25 nM, the IC50 [2, 8] is reported as 100 µM and the Emax at 300 µM [3, 9] is reported as 235%.
`CN1CCCC1c1cncc(C#CCO)c1` (stereo not shown) [R^5 = 5-(1-hydroxy-2-propynyl)] showed an IC50 [1, 7] of 3.6 nM, an IC50 [2, 8] of over 100 µM and an Emax at 300 µM [3, 9] of 157%. The Emax at 300 µM [4] was 39%.
Molecule `CN1CCCC1c1cncc(C#CCCO)c1` (stereo not shown) [R^5 = 5-(1-hydroxy-3-butynyl)] has an IC50 [1, 7] of 6 nM, an IC50 [2, 8] of over 100 µM and an Emax at 300 µM [3, 9] of 100%. It also gave an Emax at 300 µM [4] of 36.3%.
`COCC#Cc1cncc(C2CCCN2C)c1` (stereo not shown) [R^5 = 5-(1-methoxy-2-propynyl), 5-[3-(1-Methoxy-2-propynyl)]-3-(1-methyl-2-pyrrolidinyl)pyridine fumarate] gave an IC50 [1, 7] of 2.6 nM, an IC50 [2, 8] of over 100 µM and an Emax at 300 µM [3, 9] of 61.7%. For the same molecule, the Emax at 300 µM [4] was 7.4%.
For `CCCC#Cc1cncc(C2CCCN2C)c1` (stereo not shown) [R^5 = 5-(1-pentynyl), 5-[1-(1-Pentynyl)]-3-(1-methyl-2-pyrrolidinyl)pyridine fumarate], the IC50 [1, 7] was 4.2 nM, the IC50 [2, 8] was 39 µM and the Emax at 300 µM [3, 9] was 27.7%.
In the case of `CC#Cc1cncc(C2CCCN2C)c1` (stereo not shown) [R^5 = 5-(1-propynyl), 5-[1-(1-Propynyl)]-3-(1-methyl-2-pyrrolidinyl)pyridine fumarate], the IC50 [1, 7] is reported as 29 nM and the IC50 [2, 8] is reported as over 100 µM.
With `CC(O)C#Cc1cncc(C2CCCN2C)c1` (stereo not shown) [R^5 = 5-(2-hydroxy-3-butynyl), 5-[4-(2-Hydroxy-3-butynyl)]-3-(1-methyl-2-pyrrolidinyl)pyridine fumarate] the IC50 [1, 7] was 11 nM, the IC50 [2, 8] was over 100 µM and the Emax at 300 µM [3, 9] was 98%. For the same molecule, the Emax at 300 µM [4] was 30.5%.
Molecule `CN1CCCC1c1cncc(C#CCCCCCCC#Cc2cncc(C3CCCN3C)c2)c1` (stereo not shown) [R^5 = See below*, 1,10-Bis-5-[3-(1-methyl-2-pyrrolidinyl)pyridine]-deca-1,9-diyne fumarate] has an IC50 ([1]; IC50, Nicotine, ^3 H-nicotine 1.9 nM, rat cerebral membranes) of 5.2 nM and an IC50 [2] of 7.5 µM.
With `CN1CCCC1c1cncc(C#Cc2ccccc2)c1` (stereo not shown) [R^5 = phenylethynyl, 5-Phenylethynyl-3-(1-methyl-2-pyrrolidinyl)pyridine fumarate] the change in vivo at 20 mg/kg (rats; 1 h, 0-60 min, read-out: Ambulation (cross overs), percent of change from control) was 7%, the change in vivo at 20 mg/kg (rats; 1 h, 0-60 min, read-out: General Activity (beam breaks), percent of change from control) was 3% and the change in vivo at 20 mg/kg (rats; 2 h, 60-120 min, read-out: Ambulation (cross overs), percent of change from control) was -16%. For the same molecule, the change in vivo at 20 mg/kg (rats; 2 h, 60-120 min, read-out: General Activity (beam breaks), percent of change from control) was -11%.
With `C#Cc1cncc(C2CCCN2)c1` (stereo not shown) [R^7 = H; R^5 = 5-(1-ethynyl), 5-Ethynyl-3-(1-H-2-pyrrolidinyl)pyridine fumarate] the IC50 [1, 7] was 58 nM, the IC50 [2, 8] was 8.9 µM and the Emax at 300 µM [3, 9] was 61.7%. For the same molecule, the Emax at 300 µM [4] was 13.4%.

Reference: patent publication US5677459A, “Methods for the preparation of modulators of acetylcholine receptors” (Sibia Neurosciences, Inc., priority 1995, dated 1997)
